Here are results for 24 molecules from PubChem BioAssay (NCI).

Each structure is given as a SMILES string.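 Compound exposure: 48 hours, 5 concentrations, 96-well plates. TGI: total growth inhibition.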

Test systems include DLD-1 colon; HOP-18 NSCLC; KM20L2 colon; M19-MEL melanoma; MDA-N; P388 leukemia; P388/ADR leukemia; SN12K1 renal; SNB-78 CNS; XF 498 CNS; LXFL 529 NSCLC; RXF-631 renal.
Assay in all cases: NCI tumour cell line growth inhibition, 48 h

`O=C(CCCN1CCC(C(O)c2ccc(F)cc2)CC1)c1ccc(F)cc1` (stereo not drawn): the TGI in the assay with DLD-1 colon was 120 µM; in the assay on HOP-18 NSCLC, 142 µM; with KM20L2 colon, 96 µM; in the assay with M19-MEL melanoma, 115 µM; with MDA-N, 116 µM; with P388 leukemia it was 119 µM. For the same molecule, the TGI with P388/ADR leukemia is 141 µM; in the assay on SN12K1 renal it was 108 µM; with SNB-78 CNS, 123 µM; in the assay with XF 498 CNS it was 15.1 µM.
For the molecule `CCN1C(=NCCO)NS(=O)(=O)c2ccccc21`, in the assay on MDA-N, the TGI is over 100 µM.
In the case of `Cc1cc(Cl)ccc1C(=O)c1ccc2ccccc2c1C(=O)O`, in the assay on MDA-N, the TGI is over 100 µM.
Consider `COc1cc(C(C)O)c[n+](CCC2CNc3ccccc32)c1` (stereo not drawn), for which the TGI in the assay on DLD-1 colon, with KM20L2 colon, in the assay with LXFL 529 NSCLC, in the assay with M19-MEL melanoma and in the assay with XF 498 CNS was over 100 µM each time.
`CC(=O)c1ccc(NC(=O)C(=O)C(C#N)CC(C)(C)C=O)cc1` (stereo not drawn): the TGI in the assay with KM20L2 colon, in the assay with LXFL 529 NSCLC, in the assay with M19-MEL melanoma, in the assay on SNB-78 CNS and in the assay with XF 498 CNS was over 100 µM in each case.
In the assay with MDA-N, `CCOC(=O)Nc1cc2ccccc2c(N=Nc2ccccc2)c1O` registered a TGI of over 100 µM.
Turning to `COc1ccc(NC(=O)CC(=O)n2nc(C)c(N=Nc3ccccc3C(=O)O)c2C)cc1`, the TGI in the assay with DLD-1 colon, with KM20L2 colon, with LXFL 529 NSCLC, in the assay on M19-MEL melanoma, with SNB-78 CNS and with XF 498 CNS was over 100 µM throughout.
Turning to `COC(=O)c1cc(OC)c(OC)c(OC)c1-c1cc2c(cc1C=O)OCO2`, the TGI with MDA-N is over 10 µM.
Regarding `C=C(C(=C)P(=S)(C(C)C)C(C)C)P(=S)(C(C)C)C(C)C`, the TGI in the assay with DLD-1 colon, with KM20L2 colon, in the assay on LXFL 529 NSCLC, in the assay with M19-MEL melanoma, with RXF-631 renal and in the assay with SNB-78 CNS was over 100 µM throughout. The TGI in the assay on XF 498 CNS was over 100 µM.
Take `Cc1c2c(c(C)c3c1[nH]c1ccccc13)CN(C)CC2`: the TGI was over 100 µM with DLD-1 colon; over 100 µM with HOP-18 NSCLC; 41.6 µM in the assay on KM20L2 colon; 28.2 µM with LXFL 529 NSCLC; 30.7 µM in the assay on M19-MEL melanoma; 89.7 µM with RXF-631 renal. In the assay with SNB-78 CNS, this molecule came in with a TGI of 55.9 µM.
As to `OCCN(CCO)c1cccc(N(CCO)CCO)n1`, the TGI with DLD-1 colon, in the assay with KM20L2 colon, with LXFL 529 NSCLC, in the assay with M19-MEL melanoma, with RXF-631 renal and with SNB-78 CNS was over 100 µM in each case. The molecule also had a TGI in the assay on XF 498 CNS of over 100 µM.
Regarding `c1ccc(OCc2nnc3n2N=C(c2ccccc2)CS3)cc1`, the TGI in the assay with DLD-1 colon, in the assay with LXFL 529 NSCLC, in the assay on M19-MEL melanoma, in the assay on SNB-78 CNS and in the assay with XF 498 CNS was over 100 µM throughout.
As to `CC(=O)c1ccc(NC(=O)COC(=O)c2cccc3c(=O)c4ccccc4[nH]c23)cc1`, the TGI with DLD-1 colon, in the assay on HOP-18 NSCLC, in the assay on KM20L2 colon, in the assay on LXFL 529 NSCLC, with M19-MEL melanoma and with RXF-631 renal was over 100 µM in each case. Further, the figures for the TGI in the assay with SNB-78 CNS and in the assay on XF 498 CNS were over 100 µM and 55.5 µM, respectively.
In the case of `CC(=O)Nc1n[n+]([O-])c2cc(C)ccc2[n+]1[O-]`, in the assay on MDA-N, the TGI was 14.9 µM.
Turning to `COc1cccc(SSc2cccc(OC)c2C(=O)O)c1C(=O)O`, the TGI in the assay with DLD-1 colon, in the assay on HOP-18 NSCLC, in the assay on KM20L2 colon, in the assay with LXFL 529 NSCLC, in the assay on M19-MEL melanoma and in the assay with RXF-631 renal was over 100 µM in each case. The TGI in the assay with SNB-78 CNS and in the assay with XF 498 CNS was over 100 µM in each case.
Turning to `Cc1ccc(NC(=O)CCc2n[nH]c(=S)o2)cc1`, the TGI in the assay on DLD-1 colon, in the assay with HOP-18 NSCLC, in the assay on KM20L2 colon, in the assay on LXFL 529 NSCLC, in the assay with M19-MEL melanoma and in the assay with RXF-631 renal was over 100 µM in each case. Further, the TGI with SNB-78 CNS and in the assay on XF 498 CNS was over 100 µM in each case.
For `O=c1c2cc3c(cc2c2cccc4c2n1CCC4)OCO3`, the TGI in the assay on DLD-1 colon, with HOP-18 NSCLC, with KM20L2 colon, in the assay with LXFL 529 NSCLC, with M19-MEL melanoma and in the assay on SNB-78 CNS was over 100 µM throughout.
With `COc1cc2ccnc3c(=C(SC)SC)c(=O)c(c1OC)c23`, the TGI was determined as 29.5 µM in the assay on DLD-1 colon; 26.7 µM in the assay on HOP-18 NSCLC; 32.6 µM in the assay with KM20L2 colon; 16.5 µM in the assay with LXFL 529 NSCLC; 30.2 µM in the assay with M19-MEL melanoma; 28.9 µM in the assay on RXF-631 renal.
`CN(C)c1cccc(F)c1C(=O)NC(=O)Nc1ccc(Cl)cc1` displayed a TGI in the assay on MDA-N of 0.762 µM.
Same read-out and setting: in the case of `O=C(O)c1c(Br)c(Br)c(Br)c(Br)c1C1c2ccc(O)cc2Oc2cc(O)ccc21` it was over 100 µM; in that of `O=[N+]([O-])c1cc2no[n+]([O-])c2cc1N1CCCCC1`, 7.06 µM.
In turn, `Cc1ccc(C2NC(=O)c3ccccc3N2)c(C)c1` (stereo not drawn) registered a TGI with MDA-N of 0.701 µM.
`N#CC1=C(O)NC(O)=C(C#N)C1c1ccc(C2C(C#N)=C(O)NC(O)=C2C#N)cc1`: the TGI in the assay with DLD-1 colon, with HOP-18 NSCLC, in the assay with KM20L2 colon, with LXFL 529 NSCLC, with M19-MEL melanoma and in the assay with RXF-631 renal was over 100 µM throughout. The TGI in the assay on SNB-78 CNS and with XF 498 CNS was over 100 µM in each case.
As to `CC(=O)OC1=CC2(OC(C)=O)CC(C)(C)C1C1C(=O)C=CC(=O)C12` (stereo not drawn), the TGI in the assay on DLD-1 colon, in the assay with KM20L2 colon, in the assay with LXFL 529 NSCLC, in the assay with M19-MEL melanoma, in the assay on MDA-N and in the assay on RXF-631 renal was over 100 µM each time. For the same molecule, the TGI in the assay on SNB-78 CNS and in the assay on XF 498 CNS was over 100 µM throughout.
